Source: patent US20120245344A1 (NIPPON CHEMIPHAR CO., LTD., priority 2009, published 2012)
“Also recorded” adds a separate entry of the source. Each block holds one molecule with its values, some of them ahead of it.

Columns and labels:
[1] = target: T1, human GPR119 (Homo sapiens, UniProt Q8TDV5); assay: Measurement of intracellular cAMP in stable cell line expressing human GPR119 (GPR119 agonist effect); format: cell-based; details: for EC50: increase of intracellular cAMP, Flp-in T-Rex-293 cells expressing human GPR119, 37° C. for 30 minutes
T1 construct: expressed in transfected cells; host or cells: Flp-in T-Rex-293 cells (Invitrogen #R78007), plasmid pcDNA5/FRT/TO, expression induced with tetracycline
T1 sequence (Q8TDV5 1-335): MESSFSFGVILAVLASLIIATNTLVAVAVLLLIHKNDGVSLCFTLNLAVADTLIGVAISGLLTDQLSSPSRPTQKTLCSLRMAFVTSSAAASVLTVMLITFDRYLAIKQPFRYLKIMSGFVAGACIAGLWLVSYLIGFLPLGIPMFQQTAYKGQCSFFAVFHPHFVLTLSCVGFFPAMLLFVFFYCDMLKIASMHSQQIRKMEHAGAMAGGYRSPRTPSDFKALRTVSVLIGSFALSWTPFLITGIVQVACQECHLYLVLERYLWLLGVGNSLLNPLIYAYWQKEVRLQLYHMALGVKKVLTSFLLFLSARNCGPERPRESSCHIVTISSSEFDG
Description: The GPR119 agonist effect is studied by measuring the effect of an analyte on increase of intracellular amount of cAMP in human GPR119 introduced cells. The testing method is described below.
Human GPR119 gene (NM 178471) is purchased from ATCC (ATCC No. 10807349), and is amplyfied according to PCR to form BamHI site at 5′ side and Apa I site at 3′ side. The primers are […] (sequence No. 1) and […] (sequence No. 2). The PCR conditions are described below.
The double-stranded DNA is thermally denatured using a DNA polymerase (KOD-Plus-Ver. 2; TOYOBO #KOD-211) at 98° C. for 10 seconds in one cycle. The denatured single-stranded DNA is annealed with the primers at 55° C. for 30 seconds. The DNA is subjected to an extension reaction at 68° C. for 1 minute and 15 seconds. The above-mentioned steps are repeated in 35 cycles. The PCR product is inserted into pcDNA5/FRT/TO (Invitrogen #V6520-20) plasmid. Flp-in T-Rex-293 cells (Invitorogen #R78007) are transfected with the obtained plasmid. The method of transfection is conducted in accordance with the protocol of the product.
(§1) The stable cell line expressing human GPR119 prepared in the above-mentioned method is plated on a 96-well plate at the concentration of 2,500 cells/well using Dulbecco's Modified Eagle Medium (DMEM) containing 10% fetal bovine serum (FBS). Twenty-four hours after plating, tetracyclin (Invitrogen #Q10019) is added at the final concentration of 20 ng/mL to induce hGPR119 gene expression. Twenty-four hours after, the medium is removed, and the cells are stimulated with an assay buffer (0.5 mM IBMX PBS (−)) containing the test compound at 37° C. for 30 minutes. The amount of the intracellular cAMP is measured using a commercially available kit (HitHunter™ cAMP XS+Assay: GE Healthcare #90007503) and a reader (FLUOstar Optima: BMG LABTECH). The test compound is dissolved in 100% DMSO, and added at the final concentration of 1%.
Human GPR119 gene (NM 178471) was purchased from ATCC (ATCC No. 10807349), and is amplyfied according to PCR to form BamHI site at 5′ side and Apa I site at 3′ side. The primers were […] (sequence No. 1) and […] (sequence No. 2). The PCR conditions are described below. The double-stranded DNA was thermally denatured using a DNA polymerase (KOD-Plus-Ver. 2; TOYOBO #KOD-211) at 98° C. for 10 seconds in one cycle. The denatured single-stranded DNA was annealed with the primers at 55° C. for 30 seconds. The DNA was subjected to an extension reaction at 68° C. for 1 minute and 15 seconds. The above-mentioned steps were repeated in 35 cycles. The PCR product was inserted into pcDNA5/FRT/TO (Invitrogen #V6520-20) plasmid. Flp-in T-Rex-293 cells (Invitorogen #R78007) were transfected with the obtained plasmid. The method of transfection was conducted in accordance with the protocol of the product.
as §1, with “method was” for “method is”, “#Q10019) was” for “#Q10019) is”, “medium was” for “medium is”, “cells were” for “cells are”, “cAMP was” for “cAMP is”, “compound was” for “compound is”
The examination was performed by the method similar to Example 87 Pharmacological experiment 1-(1), -(2).

[2] = tested on: glycemic excursions after glucose administration in normal mice; assay: Oral glucose tolerance test in normal mice; format: in vivo, mice (male ICR); details: for Inhibition rate (%): 30 min before glucose 3 g/kg, area under the glycemic excursion curve 0-120 min versus vehicle
Procedure: In this experiment, the inhibitory effect of an analyte on glycemic excursions is examined after glucose administration in normal mice. The test methods are described below.
(§2) Male 9-week-old ICR mice, habituated to the experimental environment for two weeks, are fasted for 18 hours and used to this experiment. Mice are orally administered the analyte or vehicle (polyethylene glycol 400:ethanol:Tween 80=8:1:1). After 30 minutes, they were orally given glucose at the dose of 3 g/kg.
Blood was collected at just before the analyte or vehicle administration (−30 minutes), immediately before glucose challenge (0 minute), 20 minutes, 40 minutes, 60 minutes, and 120 minutes after glucose ingestion to determine blood glucose levels.
Inhibition rate (%) of the analyte versus vehicle in areas under the glycemic excursion curve between 0 and 120 min after glucose challenge is determined.
In this experiment, we examined the inhibitory effect of test compound on glycemic excursions after glucose administration in normal mice. The test methods are shown as follows.
as §2, with “were” for “are”, “test compound” for “analyte”, “400:ethanol:Tween80=8:1:1), and after” for “400:ethanol:Tween 80=8:1:1). After”
Blood was collected at just before the test compound or vehicle administration (−30 min), immediately before glucose challenge (0 min), 20 min, 40 min, 60 min and 120 min after glucose ingestion and then blood glucose levels were determined.
Inhibition rate (%) of the test compound versus vehicle in areas under the glycemic excursion curve between 0 and 120 min after glucose challenge was determined.
Except for the dose of test compounds made 1 mg/kg, the examination was performed by the method similar to Example 89 oral glucose tolerance test in normal mice.

[3] = 3 mg/kg, statement in words on Table 14
[4] = 1 mg/kg, statement in words on Table 15

- EC50 [1]: 353 nM
- melting point: 154 to 157 °C
SMILES: CC(C)(C)OC(=O)N1CCC(c2ccc(COc3ccc4c(c3)C=CS4(=O)=O)nc2)CC1 [Example 10, tert-Butyl 4-[2-(1,1-dioxo-1H-benzo[b]thiophen-5-yloxymethyl)pyridin-5-yl]piperidine-1-carboxylate]

- EC50 [1]: 20.5 nM
- GPR119 agonist effect (in words) ([1]; statement in words on Tables 10 to 13): excellent GPR119 agonist effect
SMILES: CC(C)(C)OC(=O)N1CCC(c2ccc(CN3CCc4cc(S(C)(=O)=O)ccc43)nc2)CC1 [Example 2]
- Inhibition rate (%) ([2]; 3 mg/kg oral): 33.7%
- inhibitory effect on glycemic excursions (in words) [2, 3]: excellent inhibitory effect on glycemic excursions; also recorded: excellent inhibitory effect of glycemic excursions

- melting point: 202 to 205 °C
SMILES: CC(C)(C)OC(=O)N1CCC(c2ccc(C(=O)N3CCc4cc(S(C)(=O)=O)ccc43)nc2)CC1 [Example 8, tert-Butyl 4-[2-(5-methanesulfonylindoline-1-carbonyl)pyridin-5-yl]piperidine-1-carboxylate]

- EC50 [1]: 19 nM
SMILES: CC(C)(C)OC(=O)N1CCC(c2ccc(Cn3ccc4cc(S(C)(=O)=O)c(F)cc43)nc2)CC1 [Example 24, tert-Butyl 4-[2-(6-fluoro-5-methanesulfonylindol-1-ylmethyl)pyridin-5-yl]piperidine-1-carboxylate]
- Inhibition rate (%) ([2]; 1 mg/kg oral): 37.9%
- inhibitory effect on glycemic excursions (in words) [2, 4]: excellent inhibitory effect on glycemic excursions; also recorded: excellent inhibitory effect of glycemic excursions

- EC50 [1]: 9.6 nM
SMILES: CC(C)OC(=O)N1CCC(c2ccc(Cn3ccc4cc(-n5cnnn5)cc(F)c43)nc2)CC1 [Example 54, Isopropyl 4-[2-[7-fluoro-5-(tetrazol-1-yl)indol-1-ylmethyl]pyridin-5-yl]piperidine-1-carboxylate]
- Inhibition rate (%) ([2]; 1 mg/kg oral): 36.0%
- inhibitory effect on glycemic excursions (in words) [2, 4]: excellent inhibitory effect on glycemic excursions; also recorded: excellent inhibitory effect of glycemic excursions

- EC50 [1]: 21.2 nM
SMILES: CC(C)(C)OC(=O)N1CCC(c2ccc(Cn3ccc4cc(S(C)(=O)=O)ccc43)nc2)CC1 [Example 1, tert-Butyl 4-[2-(5-methanesulfonylindol-1-ylmethyl)pyridin-5-yl]piperidine-1-carboxylate]
- Inhibition rate (%) ([2]; 3 mg/kg oral): 37.9%
- inhibitory effect on glycemic excursions (in words) [2, 3]: excellent inhibitory effect on glycemic excursions; also recorded: excellent inhibitory effect of glycemic excursions

- EC50 [1]: 36.3 nM
SMILES: CC(C)(C)OC(=O)N1CCC(c2cnc(Cn3ccc4cc(S(C)(=O)=O)ccc43)c(F)c2)CC1 [Example 13, tert-Butyl 4-[3-fluoro-2-(5-methanesulfonylindol-1-ylmethyl)pyridin-5-yl]piperidine-1-carboxylate]
